From patent US9427691B2, “Antimicrobial air filter” (PTI Technologies, Inc., priority 2014, dated 2016)

Columns and labels:
Type in all cases: cell-based
[1] = test system: Trichoderma virens fungus; test: antifungal test AATCC Test Method 30-2013 on treated air filter media
Description: (§1) Air filter media samples treated with the aforementioned antimicrobial solutions were then tested for antifungal properties using the common American Association of Textile Chemists and Colorists (AATCC) Test Method 30-2013. […] A larger growth-free zone indicates higher antifungal properties, and a higher surface inhibition indicates higher antifungal properties. The test was performed for both Aspergillus niger and Trichoderma virens species of fungus.

Aspergillus niger fungus = test: as above
Description: as §1

[2] = test system: Staphylococcus aureus (ATCC #6538); test: quantitative test for bacterial growth on treated air filter media; conditions: for # of Bacteria Recovered / % Reduction / Log Reduction (S): air filter media saturated with solution and dried, 18 hours at 37 C
Description: There are various anti-microbial agents that are available for application to the air filter media 16. […] To determine the effectiveness of an antimicrobial agent with regard to bacteria, samples of air filter media 16 were treated with various solutions of antimicrobial agents and subjected to a quantitative test. In the quantitative test for bacterial growth, an air filter media sample was saturated with a solution of an antimicrobial agent and allowed to dry. The air filter media sample was then placed in a sealed container and a 0.2 mL inoculum of Staphylococcus aureus (ATCC #6538) was placed, in microdroplets, on the surface of the air filter media sample. A solution having a 0.05% concentration of polysorbate 80 was added to the inoculum as a wetting agent. The air filter media sample was then incubated for 18 hours at a temperature of 37 C°. After incubation, 20 mL of […] broth was added to the container, and the container was shaken. The bacteria in the resulting liquid were then quantified using a series of dilution plates.

Compound: Cc1ccc(S(=O)(=O)C(I)I)cc1 [1% diiodomethyl-p-tolyl sulfone, diiodomethyl-p-tolyl sulfone]
- effectiveness at inhibiting fungal growth (in words) [1]: limited in its effectiveness
- Growth-Free Zone in MM ([1]; treated filter media): 0 MM
- Surface Inhibition ([1]; treated filter media): 50
- effectiveness at inhibiting fungal growth (in words) (Aspergillus niger fungus): did not inhibit any growth
- Growth-Free Zone in MM (Aspergillus niger fungus; treated filter media): 0 MM
- Surface Inhibition (Aspergillus niger fungus; treated filter media): 0
- effectiveness at inhibiting bacterial growth (in words) [2]: most effective
- # of Bacteria Recovered [2]: <2.00 × 10^1
- % Reduction [2]: >99.9%
- Log Reduction (S) [2]: >4.8

Compound: [Cl][Ag] [2% silver chloride, silver chloride]
- # of Bacteria Recovered [2]: 1.81 × 10^4
- % Reduction [2]: 98.6%
- Log Reduction (S) [2]: 1.8
